In US20060228754A1 (priority 1998, published 2006):

How the values were obtained:
cholera toxin B subunit [1] = biological target: T1, cholera toxin B subunit (Vibrio cholerae serotype O1, UniProt P01556); assay type: binding
cholera toxin B subunit [2] = biological target: T1, cholera toxin B subunit; conditions: cited from earlier work
L-selectin = biological target: T2, L-selectin (Homo sapiens, UniProt P14151); conditions: cited from earlier work
T2 sequence (P14151 39-372): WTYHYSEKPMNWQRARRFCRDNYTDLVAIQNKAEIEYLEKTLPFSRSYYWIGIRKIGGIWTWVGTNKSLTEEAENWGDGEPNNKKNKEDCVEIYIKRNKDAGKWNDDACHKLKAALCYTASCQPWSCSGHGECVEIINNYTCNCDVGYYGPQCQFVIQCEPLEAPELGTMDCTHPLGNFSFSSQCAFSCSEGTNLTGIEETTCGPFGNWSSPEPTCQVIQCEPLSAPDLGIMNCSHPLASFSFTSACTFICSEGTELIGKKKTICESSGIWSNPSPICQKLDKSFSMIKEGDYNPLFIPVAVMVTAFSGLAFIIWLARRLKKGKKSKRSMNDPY

human α-thrombin = biological target: T3, human α-thrombin (Homo sapiens, UniProt P00734); conditions: affinity label; cited from earlier work
T3 construct: screened against immobilized human α-thrombin; purchased Sigma Chemical Co

T1 sequence (P01556 22-124 limits assumed): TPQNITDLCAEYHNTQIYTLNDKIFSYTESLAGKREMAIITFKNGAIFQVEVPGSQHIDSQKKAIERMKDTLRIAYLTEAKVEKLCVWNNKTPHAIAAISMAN

COC(=O)CCCCCCCCOC1OC(COC2OC(CO)C(O)C(O)C2O)C(O)C(OC2OC(CO)C(O)C(O)C2O)C1O (stereo not drawn) [compound 3, αMan(1-3)[αMan(1-6)]βMan-OGr]
break through (in words) (cholera toxin B subunit [1]): broke through in the void volume

CC(=O)N[C@H]1[C@H](O[C@@H]2[C@H](O[C@]3(C(=O)O)C[C@H](O)[C@@H](NC(C)=O)[C@H]([C@H](O)[C@H](O)CO)O3)[C@@H](O)[C@H](O[C@H]3[C@H](O)[C@@H](O)[C@H](O)O[C@@H]3CO)O[C@@H]2CO)O[C@H](CO)[C@H](O)[C@@H]1O[C@@H]1O[C@H](CO)[C@H](O)[C@H](O)[C@H]1O [compound 7, GM1 oligosaccharide]
Kd (cholera toxin B subunit [2]): ~100 nM
break through volume (cholera toxin B subunit [1]): ~300 µL

CC(=O)NC1C(O)CC(OCCOC2OC(CO)C(O)C(OC3OC(CO)C(O)C(O)C3O)C2NC(C)=O)(C(=O)O)OC1C(O)C(O)CO (stereo not drawn) [compound 8, βGal(1-3)βGalNAc(1-)-OCH2CH2O-(-2)αNeu5Ac]
break through time (cholera toxin B subunit [1]): about 11 min

O=P(O)(O)O[C@H]1[C@H](OP(=O)(O)O)[C@@H](OP(=O)(O)O)[C@H](OP(=O)(O)O)[C@@H](OP(=O)(O)O)[C@H]1OP(=O)(O)O [phytic acid]
Kd (L-selectin): 1000 nM

fPR-chloromethyl ketone
Kd (human α-thrombin): ~50 nM
